In ChEMBL document CHEMBL3507680, “University of Dundee, Gates Library screen for HepG2 cell viability”:

Test: Human HepG2 cell viability assay in 384 well format
Type: toxicity, cell-based
Parameters: dose 125 nL, time 70.5 hour; concentration not given beside the values
Settings: HepG2 cells, read-out: Inhibition

SMILES | cytotoxicity at 70.5 h [%]
CN(C)c1ncccc1C(=O)N1CCCC1Cn1cccn1 (stereo unspecified) | -5.68
O=C(c1csc(C2CC2)n1)N1CCCC1Cn1cccn1 (stereo unspecified) | 0.252
CC(=O)N1CCCN(C(=O)NCc2ccc(Cl)s2)CC1 | -3.07
Cc1ccccc1CNc1ccccc1OCC(=O)N1CCOCC1 | -3.34
COCc1cc(NCCCSc2nnc(C)s2)ncn1 | -6.65
CC(OCC1CC1)C(=O)Nc1ncccc1I (stereo unspecified) | -6.4
COc1ccc2c(c1)OCC(CNc1cc(N)nc(SC)n1)C2 (stereo unspecified) | -0.598
CN1CCN(C(=O)N2CCCC(c3nccn3CC3CCC3)C2)CC1 (stereo unspecified) | -15.8
COc1cccc(S(=O)(=O)CCN2CCCCC2)c1 | -15.7
Cc1ccc(CC(=O)N2CCN(C3CCOC3=O)CC2)cc1 (stereo unspecified) | -1.49
N#Cc1c(Cl)nsc1NCc1cccnc1OCC(F)(F)F | -105
O=C(NCc1cc2n(n1)CCCNC2)C1(c2ccccc2)CCCCC1 | 0.103
N#Cc1ccc(Cn2cncn2)c(F)c1 | -12.7
CCC(C)C(=O)Nc1ccc(CCN2CCOCC2)cc1 (stereo unspecified) | -18.2
CSCC(=O)NC1(c2cccc(Cl)c2)CC1 | -3.77
CC1CCN(c2ncc3c(n2)CN(c2ccccc2)C3=O)CC1 | -9.08
CCc1ccc(-c2cn3c(C(=O)N[C@H](C(N)=O)[C@@H](C)O)csc3n2)cc1 | 15.1
CC(C)Cc1cc(C(=O)NCCc2ccc(S(C)(=O)=O)cc2)[nH]n1 | -7.03
CN(C)c1nccc(N2CCO[C@H]3CN(Cc4nccn4C)C[C@H]32)n1 | -0.595
Cc1oc(C(=O)O)cc1S(=O)(=O)Nc1ccc(Br)cc1Cl | -16.9
Cc1cccc(C(=O)N2CCc3ncnc(C4CCOC4)c3CC2)n1 (stereo unspecified) | -0.465
CCc1nc(CN2CCCN(C(=O)c3cccn3C)CC2)cs1 | 2.1
COCC(=O)N1CCCC(c2nc(N)ncc2-c2cccc(F)c2)C1 (stereo unspecified) | 2.19

SMILES | cytotoxicity at 70.5 h [%]
CSc1[nH]c(=O)c(C(=O)N2CCCC2C2CCCC2)cc1C#N (stereo unspecified) | -5.31
c1ccc(Cn2cccn2)c(CN2CCCCC2CCn2ccnc2)c1 (stereo unspecified) | 0.54
CSc1nsc(NC(=O)N(C)Cc2ccc3c(c2)OCO3)n1 | -8.04
Cn1cnnc1SC1CCc2ccccc2NC1=O (stereo unspecified) | -20.5
CC(C)c1nc(C2CCCN2C(=O)c2nccnc2N)no1 (stereo unspecified) | -7.76
Cc1ccc(CN2CCc3onc(C(=O)NC(C)C)c3C2)o1 | -8.41
COc1ccnc(N2CCN(C(=O)c3csc(C)n3)CC2)n1 | -4.93
CCOCCN1CCCC(c2cc(C(N)=O)[nH]n2)C1 (stereo unspecified) | -13.1
CN(CCC(C)(C)O)C(=O)C1CCC(=O)N(Cc2ccc(Cl)cc2)C1 (stereo unspecified) | -5.36
CN1CCC(C(=O)N2CCC(=Cc3cccc(F)c3)CC2)CC1=O (stereo unspecified) | 16.2
c1ccc(CN2CCC(Nc3ncnc4c3CCNCC4)C2)cc1 (stereo unspecified) | -4.37
COC(=O)[C@H](C)NC(=O)CSCc1nc2sc(C(C)C)cc2c(=O)[nH]1 | -9.3
CC(C)N1CC(n2ccnc2-c2nccn2C)CC1=O (stereo unspecified) | -7.49
CCOC(=O)c1sc(NC(=O)CN(C)S(C)(=O)=O)c(C#N)c1C | 26.2
Cc1cc(CNC2(c3ccccc3)CCCCC2)on1 | -0.993
CCc1c(C)nn(CCNC(=O)Cc2csc(C)n2)c1C | -6.58
CC(C)COC(C)C(=O)NCc1ccc(Cn2ccnc2)cc1 (stereo unspecified) | -8.31
Cc1nc(C)c(S(=O)(=O)NC(=O)c2ccoc2)s1 | -13
COCC[C@]1(O)CCN(CC(=O)NCc2ccccn2)C[C@H]1C | 5.51
CNc1ncc(CN(C)C(=O)CCc2[nH]nc3c2CCCC3)cn1 | -11.5
Cc1nc(CNc2ccc(C(=O)NCc3ccco3)cc2C)no1 | -11.5
Cc1occc1C(=O)N1CCn2c(Cn3cncn3)cnc2C1C (stereo unspecified) | 50.5
Cn1nnc2c1C(COCC1CC1)CN(C(=O)Cc1ccsc1)C2 (stereo unspecified) | -0.74
